{
  "source": "patent US20210186888A1",
  "about": "“NANOPARTICLE COMPOSITIONS FOR CANCER TREATMENT” (priority 2017, published 2021)",
  "format_in_all_cases": "cell-based",
  "key": {"[1]": {"tested_on": "MDA-MB-231", "test": "MTT assay", "description": "(§1) MTT assay: Cells were grown to log phase in their respective media, washed in PBS, trypsinized, and plated on 96-well plates at a density of 3,000-6,000 cells per well in 200 μL of complete media. Cells were allowed to recover for 18 hours and were then exposed to AgNPs for 48 or 72 hours. For NAC studies, cells were exposed to 4 mM NAC (Sigma Aldrich) diluted in growth media for 6 h prior to AgNP treatment. Media containing NAC was removed and replaced with media containing AgNPs. For induction of EMT, cells were exposed to 10 ng/ml TGF-β1 (R&D Systems) for 6 days at 37° C., prior to AgNP treatment. Media containing AgNPs were replaced with 200 μL of media containing 0.5 mg/mL MTT and incubated for 1 hour at 37° C. Medium was removed, and cells were lysed in 200 μL of DMSO and read using a Molecular Devices Emax Precision Microplate Reader at 560 nm and corrected for background at 650 nm.\nAs with the 48 h treatment, the CLBC cell lines were the most sensitive to AgNPs following a 72 h treatment.\n(§2) IC50 calculations were performed using the prism software. IC50 in Table II are shown in total NP (AgNP) concentration and silver (Ag) content. At least 3 independent experiments were conducted for each cell line."}, "[2]": {"tested_on": "BT-549", "test": "MTT assay", "description": "as §1\nZEB1 Knockdown: BT549 cells were plated in 60mm tissue culture plates and allowed to grow to 80-90% confluence. Each plate was then transfected with a non-coding control shRNA plasmid, or a plasmid containing shRNA targeted against ZEB1. Knockdown constructs used in this study were obtained from Sigma Aldrich (Mission shRNA TRCN0000369267 and TRCN0000369266). Each plate was transfected using 1 μg plasmid in conjunction with Lipofectamine 2000 (Invitrogen) according to the manufacturer's protocol. The following day cells were reseeded and were maintained in medium containing puromycin (2 μg/ml). ZEB1 expression levels were verified using immunoblot prior to experimentation.\nTNBC cell lines which can be further classified as the CLBC (MDA-MB-231, BT-549, SUM-159) or basal (BT-20, MDA-MB-468) molecular subtypes were tested, as were luminal A (MCF-7), HER-2+ (SKBR3), and non-cancerous breast (MCF-10A, 184B5, iMEC) cell lines (FIG. 2A). […] As with the 48 h treatment, the CLBC cell lines were the most sensitive to AgNPs following a 72 h treatment.\nas §2\nBT549 claudin-low breast cancer cells were treated with either AgNPs or KRIBB11, an HSF1 inhibitor, independently and in combination. The treated cells were then assessed for cell viability by MTT assay (FIG. 17A).\nBT549 claudin-low breast cancer cells were treated with either AgNPs or 17-DMAG, an HSP90 inhibitor, independently and in combination. Treated cells were then assessed for cell viability by MTT assay (FIG. 19A). […] Combination treatment of both AgNPs and […]"}, "[3]": {"tested_on": "AgNP sensitive cell lines", "test": "ROS detection with H2DCF-DA", "settings": "24 h 10 mM NAC"}, "[4]": {"tested_on": "PERK arm of the UPR in MDA-MB-231 cells", "test": "Immunoblotting of PERK arm activation (p-eIF2α)", "settings": "4 h", "description": "MDA-MB-231 cells were treated with 1 μM of the ER stress inducer, thapsigargin, 25 nM of the PERK inhibitor (PERKi), […], or the combination of thapsigargin and GSK2606414 for 4 h to verify the efficacy of the PERKi, GSK2606414. […] To further evaluate the role of ER stress in AgNP-induced cytotoxicity, MDA-MB-231 cells were treated with increasing doses of AgNPs alone or in combination with the PERKi, GSK2606414, for 48 h to determine if PERK inhibition provides protection against AgNP-induced cytotoxicity."}, "[5]": {"tested_on": "BT-20", "test": "MTT assay", "description": "as §1\nTNBC cell lines which can be further classified as the CLBC (MDA-MB-231, BT-549, SUM-159) or basal (BT-20, MDA-MB-468) molecular subtypes were tested, as were luminal A (MCF-7), HER-2+ (SKBR3), and non-cancerous breast (MCF-10A, 184B5, iMEC) cell lines (FIG. 2A). […]\nBT20 basal-like breast cancer cells were treated with either AgNPs or KRIBB11, an HSF1 inhibitor, independently and in combination. Treated cells were then assessed for cell viability by MTT assay (FIG. 18A)."}},
  "data": [
    {"smiles": "CC(=O)N[C@@H](CS)C(=O)O", "note": "[NAC, N-acetylcysteine]", "values": [
      {"measurement": "effect of NAC pre-treatment on AgNP cytotoxicity", "setting": "[1]; MDA-MB-231, 4 mM NAC 6 h before 48 h AgNP, Ag 15.625-62.5 μg/ml", "value": "significantly decreased cytotoxicity"},
      {"measurement": "effect of NAC pre-treatment on AgNP cytotoxicity", "setting": "[2]; BT-549, 4 mM NAC 6 h before 48 h AgNP, Ag 62.5-125 μg/ml", "value": "significantly decreased cytotoxicity"},
      {"measurement": "basal ROS after NAC treatment", "setting": "[3]", "value": "partially mitigate some of the basal ROS"}
    ]},
    {"smiles": "C/C=C(/C)C(=O)O[C@H]1C(C)=C2[C@H]([C@@H]1OC(=O)CCCCCCC)[C@@](C)(OC(C)=O)C[C@H](OC(=O)CCC)[C@@]1(O)[C@H]2OC(=O)[C@@]1(C)O", "note": "[thapsigargin, Thapsigargin]", "values": [
      {"measurement": "phosphorylation of eIF2α (p-eIF2α)", "setting": "[4]; MDA-MB-231, 1 μM", "value": "increase in phosphorylation of the downstream effector, eIF2α"}
    ]},
    {"smiles": "CO[C@H]1/C=C\\C=C(/C)C(=O)NC2=CC(=O)C(NCCN(C)C)=C(C[C@@H](C)C[C@H](OC)[C@H](O)[C@@H](C)/C=C(\\C)[C@@H]1OC(N)=O)C2=O", "note": "[17-DMAG]", "values": [
      {"measurement": "sensitivity to AgNPs versus HSP90 inhibition (dose reduction index)", "setting": "[2]; BT549, single agents", "value": "equally sensitive"}
    ]},
    {"smiles": "Cn1cc(-c2ccc3c(c2)CCN3C(=O)Cc2cccc(C(F)(F)F)c2)c2c(N)ncnc21", "note": "[GSK2606414]", "values": [
      {"measurement": "p-eIF2α expression, co-treatment with thapsigargin vs thapsigargin alone", "setting": "[4]; MDA-MB-231, 25 nM PERKi + 1 μM thapsigargin", "value": "decreased p-eIF2α expression"},
      {"measurement": "viability, AgNPs alone vs in combination with the PERKi", "setting": "[1]; MDA-MB-231, 48 h", "value": "no significant difference in viability"}
    ]},
    {"smiles": "CNc1ccc([N+](=O)[O-])c(Nc2ccc3[nH]ncc3c2)n1", "note": "[KRIBB11]", "values": [
      {"measurement": "combination treatment with AgNPs (combination index)", "setting": "[5]; BT20, AgNPs + HSF1 inhibitor", "value": "synergistic response"},
      {"measurement": "sensitivity to AgNPs versus HSF1 inhibition (dose reduction index)", "setting": "[5]; BT20, single agents", "value": "marginally more sensitive to AgNPs"},
      {"measurement": "combination treatment with AgNPs (combination index)", "setting": "[2]; BT549, AgNPs + HSF1 inhibitor", "value": "synergistic response"},
      {"measurement": "combination treatment with AgNPs (combination index)", "setting": "[2]; BT549, AgNPs + HSP90 inhibitor", "value": "additive response"},
      {"measurement": "sensitivity to AgNPs versus HSF1 inhibition (dose reduction index)", "setting": "[2]; BT549, single agents", "value": "equally sensitive"}
    ]}
  ]
}
